Patent publication US11793880B2, “Conjugates of quaternized tubulysin compounds” (Seagen Inc., priority 2015, dated 2023)
Read-outs that look alike come from different tables or passages of the source.

Tests used:
Karpas299, ALCL [1] = test: In vitro assays - tubulysin ADCs (cAC10, anti-CD30); format: cell-based; settings: Table 4; cAC10 ADCs DAR 8, 96 h
DEL, ALCL = tested on: DEL, ALCL
Procedure: (§1) In vitro assays. Cells cultured in log-phase growth were seeded for 24 h in 96-well plates containing 150 μL RPMI 1640 supplemented with 20% FBS. Serial dilutions of antibody-drug conjugates in cell culture media were prepared at 4× working concentrations; 50 μL of each dilution was added to the 96-well plates. […] After 96 h, growth inhibition was assessed by CellTiter-Glo® (Promega, Madison, WI) and luminescence was measured on a plate reader.
(§2) In vitro assays—tubulysin ADCs. ADCs were prepared by t Ell reduction of interchain disulfides to reveal 8-conjugatable cysteines/antibody that were alkylated through Michael addition with the maleimide-containing Drug Linker compounds. […] conjugates hearing quaternized tubulysin ethers with and without a PEG12 side-chain were compared to their tubulysin M analogs.
(§3) Several hydrophilic linker constructs incorporating quaternized tubulysin M were prepared and evaluated in vitro; the results are shown in Table 5. The data (IC50 values in ng/mL) indicate that Conjugates prepared from Drug Linker compounds having quaternized tubulysin M linked via a hydrophilic ValGlu dipeptide with (95) or without (91) a PEG12 side chain, or linked via a hydrophilic glucuronide (82) provide ADCs that are equipotent to the ValAla comparator (15).

DEL/BVR, MDR + ALCL = tested on: DEL/BVR, MDR + ALCL
Procedure: as §1, §2, §3

L428, MDR + HL [2] = tested on: L428, MDR + HL
Procedure: as §1, §2, §3

L540cy, HL [3] = tested on: L540cy, HL
Procedure: as §1, §2, §3

[4] = tested on: antigen-negative Hep3B hepatocellular carcinoma cells; settings: Table 5, cAC10 ADCs 8 drugs/mAb, MDPR-Linker-TubM
Procedure: as §1, §3

[5] = tested on: Karpas299, L540cy, L428, DEL, DEL/BVR cell lines; test: In vitro assays - tubulysin ADCs, statements across the cell line panel; format: cell-based; settings: Table 4; cAC10 conjugates 8 drug/Ab
Procedure: as §1, §2, §3

Karpas299, ALCL [6] = test: In vitro assays - tubulysin free drugs, CellTiter-Glo growth inhibition; format: cell-based; settings: Homo sapiens, KARPAS-299, 96 h, Table 2; free drug, 96 hour exposure
L428, MDR + HL [7] = test: as above; format: cell-based; settings: Homo sapiens, L-428, 96 h, Table 2; free drug, 96 hour exposure
HL60, AML = test: as above; format: cell-based; settings: Homo sapiens, HL-60, 96 h, Table 2; free drug, 96 hour exposure
HL60/RV, MDR + AML = test: as above; format: cell-based; settings: Homo sapiens, HL-60, 96 h, Table 2; free drug, 96 hour exposure
L540cy, HL [8] = test: as above; format: cell-based; settings: L540cy, 96 h, Table 2; free drug, 96 hour exposure
[9] = tested on: Karpas299, L540cy, L428, HL60, HL60/RV cell lines; test: In vitro assays - tubulysin free drugs, statements across the cell line panel; format: cell-based; settings: Table 2 cell lines, 96 hour exposure
Procedure: In vitro assays. Cells cultured in log-phase growth were seeded for 24 h in 96-well plates containing 150 μL RPMI 1640 supplemented with 20% FBS. Serial dilutions of antibody-drug conjugates in cell culture media were prepared at 4× working concentrations; 50 μL of each dilution was added to the 96-well plates. Following addition of ADC, cells were incubated with test articles for 4 d at 37° C. After 96 h, growth inhibition was assessed by CellTiter-Glo® (Promega, Madison, WI) and luminescence was measured on a plate reader. The IC50 value, determined in triplicate, is defined here as the concentration that results in a 50% reduction in cell growth relative to untreated controls.
In vitro assays—tubulysin free drugs. Cells were treated for 96 hours with tubulysin ether analogs (40-42) or tubulysin M (7), then assessed for viability as described in the methods.
The ethyl ether and tubulysin M maintained the highest level of potency in the context of MDR+L428 and HL60/RV cell lines.
The tubulysin ester analogs (133-137) and unsaturated ether analogs (176-179) were tested in vitro for potency relative to tubulysin M (7), following a 96 hour exposure. As shown by IC50 values (nM) of Table 2, Tubulysin esters 133-136 performed comparably to tubulysin M, with similar potencies across of the cell lines.

[10] = Table 5, cAC10 ADCs 8 drugs/mAb, MDPR-Linker-TubM
[11] = Table 4, cAC10 ADCs DAR 8, 96 h

Row | SMILES | IC50, Karpas299, ALCL (Karpas299, ALCL [1]) | IC50, DEL/BVR, MDR + ALCL (DEL/BVR, MDR + ALCL; [11]) | IC50, L428, MDR + HL (L428, MDR + HL [2]; [11]) | IC50, L540cy, HL (L540cy, HL [3]; [11]) | other results
1 | CC[C@H](C)[C@H](NC(=O)[C@H]1CCCC[N+]1(C)Cc1ccc(O[C@@H]2O[C@H](C(=O)O)[C@@H](O)[C@H](O)[C@H]2O)c(NC(=O)CCNC(=O)[C@H](CN)N2C(=O)C=CC2=O)c1)C(=O)N(C)[C@H](C[C@@H](OC(C)=O)c1nc(C(=O)N[C@@H](Cc2ccccc2)C[C@H](C)C(=O)O)cs1)C(C)C (stereo partly drawn) [Compound 82, (2R)-2-(((2S,3S)-1-(((1R,3R)-1-acetoxy-1-(4-(((2R,4S)-4-carboxy-1-phenylpentan-2-yl)carbamoyl)thiazol-2-yl)-4-methylpentan-3-yl)(methyl)amino)-3-methyl-1-oxopentan-2-yl)carbamoyl)-1-(3-(3-((S)-3-amino-2-(2,5-dioxo-2,5-dihydro-1H-pyrrol-1-yl)propanamido)propanamido)-4-(((2S,3R,4S,5S,6S)-6-carboxy-3,4,5-trihydroxytetrahydro-2H-pyran-2-yl)oxy)benzyl)-1-methylpiperidin-1-ium] | 0.6 ng/mL | 3 ng/mL | 0.5 ng/mL | 4 ng/mL | IC50, DEL, ALCL (DEL, ALCL; [10]): 0.3 ng/mL; IC50, DEL/BVR, MDR + ALCL (DEL/BVR, MDR + ALCL; [10]): 4 ng/mL; IC50, L428, MDR + HL (L428, MDR + HL [2]; [10]): 0.4 ng/mL; IC50, L540cy, HL (L540cy, HL [3]; [10]): 1 ng/mL; IC50, Hep3B CD30- HCC [4]: >1000 ng/mL
2 | CC[C@H](C)[C@H](NC(=O)[C@H]1CCCC[N+]1(C)Cc1ccc(NC(=O)[C@H](C)NC(=O)[C@@H](NC(=O)[C@H](CN)N2C(=O)C=CC2=O)C(C)C)cc1)C(=O)N(C)[C@H](C[C@@H](OC(C)=O)c1nc(C(=O)N[C@@H](Cc2ccccc2)C[C@H](C)C(=O)O)cs1)C(C)C (stereo partly drawn) [Compound 15, (2R)-2-(((2S,3S)-1-(((1R,3R)-1-acetoxy-1-(4-(((2R,4S)-4-carboxy-1-phenylpentan-2-yl)carbamoyl)thiazol-2-yl)-4-methylpentan-3-yl)(methyl)amino)-3-methyl-1-oxopentan-2-yl)carbamoyl)-1-(4-((S)-2-((S)-2-((S)-3-amino-2-(2,5-dioxo-2,5-dihydro-1H-pyrrol-1-yl)propanamido)-3-methylbutanamido)propanamido)benzyl)-1-methylpiperidin-1-ium] | – | – | – | – | IC50, DEL, ALCL (DEL, ALCL; [10]): 0.3 ng/mL; IC50, DEL/BVR, MDR + ALCL (DEL/BVR, MDR + ALCL; [10]): 4 ng/mL; IC50, L428, MDR + HL (L428, MDR + HL [2]; [10]): 1 ng/mL; IC50, L540cy, HL (L540cy, HL [3]; [10]): 2 ng/mL; IC50, Hep3B CD30- HCC [4]: >1000 ng/mL
3 | CCCO[C@H](C[C@H](C(C)C)N(C)C(=O)[C@@H](NC(=O)[C@H]1CCCC[N+]1(C)Cc1ccc(O[C@@H]2O[C@H](C(=O)O)[C@@H](O)[C@H](O)[C@H]2O)c(NC(=O)CCNC(=O)[C@H](CCCCNC(=O)CCOCCOCCOCCOCCOCCOCCOCCOCCOCCOCCOCCOC)NC(=O)[C@H](CN)N2C(=O)C=CC2=O)c1)[C@@H](C)CC)c1nc(C(=O)N[C@@H](Cc2ccccc2)C[C@H](C)C(=O)O)cs1 (stereo partly drawn) [Compound 67] | 4 ng/mL | 12 ng/mL | >1000 ng/mL | 10 ng/mL | –
4 | CCO[C@H](C[C@H](C(C)C)N(C)C(=O)[C@@H](NC(=O)[C@H]1CCCC[N+]1(C)Cc1ccc(O[C@@H]2O[C@H](C(=O)O)[C@@H](O)[C@H](O)[C@H]2O)c(NC(=O)CCNC(=O)[C@H](CN)N2C(=O)C=CC2=O)c1)[C@@H](C)CC)c1nc(C(=O)N[C@@H](Cc2ccccc2)C[C@H](C)C(=O)O)cs1 (stereo partly drawn) [Compound 57, (2R)-1-(3-(3-((S)-3-amino-2-(2,5-dioxo-2,5-dihydro-1H-pyrrol-1-yl)propanamido)propanamido)-4-(((2S,3R,4S,5S,6S)-6-carboxy-3,4,5-trihydroxytetrahydro-2H-pyran-2-yl)oxy)benzyl)-2-(((2S,3S)-1-(((1R,3R)-1-(4-(((2R,4S)-4-carboxy-1-phenylpentan-2-yl)carbamoyl)thiazol-2-yl)-1-ethoxy-4-methylpentan-3-yl)(methyl)amino)-3-methyl-1-oxopentan-2-yl)carbamoyl)-1-methylpiperidin-1-ium] | 1 ng/mL | 5 ng/mL | 4 ng/mL | 5 ng/mL | conjugate potency, in words [5]: consistently more potent
5 | CC[C@H](C)[C@H](NC(=O)[C@H]1CCCC[N+]1(C)Cc1ccc(O[C@@H]2O[C@H](C(=O)O)[C@@H](O)[C@H](O)[C@H]2O)c(NC(=O)CCNC(=O)[C@H](CCCCNC(=O)CCOCCOCCOCCOCCOCCOCCOCCOCCOCCOCCOCCOC)NC(=O)[C@H](CN)N2C(=O)C=CC2=O)c1)C(=O)N(C)[C@H](C[C@@H](OC(C)=O)c1nc(C(=O)N[C@@H](Cc2ccccc2)C[C@H](C)C(=O)O)cs1)C(C)C (stereo partly drawn) [Compound 99] | 0.3 ng/mL | 2 ng/mL | 0.5 ng/mL | 2 ng/mL | IC50, DEL, ALCL (DEL, ALCL; [11]): 1 ng/mL
6 | CC[C@H](C)[C@H](NC(=O)[C@H]1CCCC[N+]1(C)Cc1ccc(O[C@@H]2O[C@H](C(=O)O)[C@@H](O)[C@H](O)[C@H]2O)c(NC(=O)CCNC(=O)[C@H](CN)N2C(=O)C=CC2=O)c1)C(=O)N(C)[C@H](C[C@@H](OC)c1nc(C(=O)N[C@@H](Cc2ccccc2)C[C@H](C)C(=O)O)cs1)C(C)C (stereo partly drawn) [Compound 56, (2R)-1-(3-(3-((S)-3-amino-2-(2,5-dioxo-2,5-dihydro-1H-pyrrol-1-yl)propanamido)propanamido)-4-(((2S,3R,4S,5S,6S)-6-carboxy-3,4,5-trihydroxytetrahydro-2H-pyran-2-yl)oxy)benzyl)-2-(((2S,3S)-1-(((1R,3R)-1-(4-(((2R,4S)-4-carboxy-1-phenylpentan-2-yl)carbamoyl)thiazol-2-yl)-1-methoxy-4-methylpentan-3-yl)(methyl)amino)-3-methyl-1-oxopentan-2-yl)carbamoyl)-1-methylpiperidin-1-ium] | 3 ng/mL | 20 ng/mL | >1000 ng/mL | 10 ng/mL | –
7 | CC[C@H](C)[C@H](NC(=O)[C@H]1CCCCN1C)C(=O)N(C)[C@H](C[C@@H](OC(=O)CC(C)(C)C)c1nc(C(=O)N[C@@H](Cc2ccccc2)C[C@H](C)C(=O)O)cs1)C(C)C [Compound 137, (2S,4R)-4-(2-((1R,3R)-3-((2S,3S)—N,3-dimethyl-2-((R)-1-methylpiperidine-2-carboxamido)pentanamido)-1-((3,3-dimethylbutanoyl)oxy)-4-methylpentyl)thiazole-4-carboxamido)-2-methyl-5-phenylpentanoic acid] | – | – | – | – | IC50 (Karpas299, ALCL [6]): 180 pM; IC50 (L428, MDR + HL [7]): 930 pM; IC50 (HL60, AML): 700 pM; IC50 (HL60/RV, MDR + AML): 47000 pM; IC50 (L540cy, HL [8]): 700 pM; potency relative to tubulysin M (7), in words [9]: reduced potency
8 | CCO[C@H](C[C@H](C(C)C)N(C)C(=O)[C@@H](NC(=O)[C@H]1CCCC[N+]1(C)Cc1ccc(O[C@@H]2O[C@H](C(=O)O)[C@@H](O)[C@H](O)[C@H]2O)c(NC(=O)CCNC(=O)[C@H](CCCCNC(=O)CCOCCOCCOCCOCCOCCOCCOCCOCCOCCOCCOCCOC)NC(=O)[C@H](CN)N2C(=O)C=CC2=O)c1)[C@@H](C)CC)c1nc(C(=O)N[C@@H](Cc2ccccc2)C[C@H](C)C(=O)O)cs1 (stereo partly drawn) [Compound 66] | 1 ng/mL | 6 ng/mL | 6 ng/mL | 5 ng/mL | –
